Measured values reported in patent US20150167016A1, “Plants Tolerant to HPPD Inhibitor Herbicides” (Bayer CropScience AG, priority 2009, published 2015).
“And” between values parts separate entries of the source, which are not always exact repeats. Equal values may be shown once. Read-outs that look alike come from different tables or passages of the source.

Key:
(UniProt Q6KZ98) = assay: biochemical; assay type: biochemical, Picrophilus torridus; settings: read-out: pI50 (converted)
[1] = system: Picrophilus torridus HPPD "SEQ ID No. 5"; assay: biochemical; assay type: biochemical
Wild type tobacco plants [2] = assay: Glasshouse response to bicyclopyrone, injury classes; assay type: in vivo, Nicotiana tabacum; settings: WT; 100 g Al/ha, 7 DAT
From the text: (§1) Seeds of wild type tobacco plants and T1 tobacco plants carrying the gene from Picrophilus torridus FMP29e coding for HPPD were sown on MS media (Murashige and Skoog […]) supplemented with […] kanamycin. After 4 weeks, rooted green plantlets were transferred to soil and grown for 3 weeks in the glasshouse as described above then sprayed with a mixture containing bicyclopyrone (100 g Al/ha), ammonium sulfate and methyl ester raps oil. The plants were classified in two categories based on the phenotype developed in response to the herbicide seven days after the treatment. […] In this case, only plants containing at least one T-DNA were exposed to the herbicidal treatment.

[3] = system: T1 tobacco plants carrying FMP29e from Picrophilus torridus; assay: as above; assay type: in vivo, Nicotiana tabacum; settings: 100 g Al/ha, 7 DAT
From the text: as §1

Wild type tobacco plants [4] = assay: Glasshouse spray trial, herbicidal damage; assay type: in vivo, Nicotiana tabacum; settings: individual plants, 100% = same bleaching as wild type
Protocol: (§2) T0 Tobacco plants containing either the gene from Arabidopsis coding for HPPD or the gene FMP29e from Picrophilus torridus coding for FMP29 HPPD, mentioned above (Example3), were transferred to the glasshouse (28/20° C.), to develop further and produce seeds. Those seeds were harvested and put on soil (ED73 mixed with sand and osmocote Pro) to germinate in the glasshouse (28/20° C.). Three to four weeks later, plantlets were transferred to single pots containing the soil mentioned above. Two weeks later, plants of a size 4-6 cm diameter were sprayed with either • tembotrione at 100 gAl/ha prepared from a WP20 (wettable powder 20%) formulation supplemented with ammonium sulfate and methyl ester raps oil, or • isoxaflutole at 100 gAl/ha prepared from a WP20 formulation supplemented with ammonium sulfate and methyl ester raps oil, or • bicyclopyrone at 100 gAl/ha prepared from a WP20 formulation supplemented with ammonium sulfate and methyl ester raps oil, or • “blind formulation” made from a WP20 formulation without active ingredient (Al) supplemented with ammonium sulfate and methyl ester raps oil, and were then transferred to a growth chamber with adequate light conditions (20000 Lux).
(§3) Table 5: Wild type tobacco plants (A) and Ti populations of tobacco events containing alternatively, the expression cassettes described above having the promoter CaMV 35S, the sequence coding for OTP and the sequence coding for Arabidopsis HPPD (B) or the promoter CaMV35S, the sequence encoding OTP, and the sequence FMP29e coding for the HPPD FMP29 (C). Assessments of herbicidal damage at 7 days after application (DAT) per spray with 100 g Al/ha of tembotrione or isoxaflutole supplemented with ammonium sulfate and methyl ester raps oil. […] Plants belonging to categories (B) and (C) have not been selected for the presence of the respective transgene prior to the herbicide application.

[5] = system: T1 tobacco plants containing Arabidopsis HPPD; assay: Glasshouse spray trial, herbicidal damage; assay type: in vivo, Nicotiana tabacum; settings: not selected for transgene
Protocol: as §2, §3

[6] = system: T1 tobacco plants containing FMP29e (Picrophilus torridus HPPD FMP29); assay: Glasshouse spray trial, herbicidal damage; assay type: in vivo, Nicotiana tabacum; settings: for tolerance of plants containing FMP29e gene: 7 DAT, 100 g Al/ha spray; for % injury, 7DAT, 100 g Al/ha: FMP29e, not selected for transgene
Protocol: as §2, §3

[7] = target: T1, Arabidopsis thaliana HPPD "SEQ ID No. 10" (Arabidopsis thaliana, UniProt P93836); assay: HPPD activity in presence of HPPD inhibitors (spectrophotometric assay of WO 2009/144079); assay type: biochemical
T1 construct: made in house; host or cells: E. coli K-12 BL21 (pQE30-AtHPPD)
T1 sequence (P93836 with tags, fused parts or gaps): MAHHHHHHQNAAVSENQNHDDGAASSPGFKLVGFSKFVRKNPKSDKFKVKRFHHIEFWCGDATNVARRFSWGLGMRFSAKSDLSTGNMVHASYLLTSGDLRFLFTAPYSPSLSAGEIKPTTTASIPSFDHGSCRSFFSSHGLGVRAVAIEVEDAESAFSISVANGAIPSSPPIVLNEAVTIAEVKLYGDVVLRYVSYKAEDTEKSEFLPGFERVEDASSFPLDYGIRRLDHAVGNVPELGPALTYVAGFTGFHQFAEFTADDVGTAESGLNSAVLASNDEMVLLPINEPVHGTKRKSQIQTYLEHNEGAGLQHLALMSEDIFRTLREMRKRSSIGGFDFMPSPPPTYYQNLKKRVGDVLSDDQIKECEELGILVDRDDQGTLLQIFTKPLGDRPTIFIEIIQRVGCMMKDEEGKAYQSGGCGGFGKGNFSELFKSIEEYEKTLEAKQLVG

[8] = system: tobacco calli containing HPPD SEQ ID No. 7 (Picrophilus torridus); assay: Rooting of calli on media with tembotrione; assay type: cell-based, Nicotiana tabacum; settings: calli containing SEQ ID No. 7, 6 to 12 weeks
Protocol: (§4) The leaf disks were co-cultivated for 2 days with Agrobacterium tumefaciens cells containing either the binary vector FMP29ebv or AtHPPDbv. Then the leaf disks were transferred to a media allowing the regeneration of shoots for 6 weeks on MS (Musharige and Skoog, (1962), Physiol Plant 15(3): 473-497) media supplemented with BAP (1 mg/mL; Benzylaminopurine), carbenicillin (250 mg/mL), cefotaxine (250 mg/mL), kanamycin (75 mg/mL) and tembotrione (10^−6 M) Regenerated calli were transferred on media to induce the development of roots for 6 to 12 weeks: MS (½), supplemented with carbenicillin (250 mg/mL), cefotaxine (250 mg/mL), kanamycin (75 mg/mL), and tembotrione (10^−6 M).
(§5) Regenerated shoot calli from a cell transformed with a nucleic acid sequence encoding an HPPD comprising SEQ ID No. 11 (Arabidopsis thaliana) or SEQ ID No. 7 (Picrophilus torridus) were transferred to a media inducing root growth which media was further supplemented with the HPPD inhibitor tembotrione for 6 to 12 weeks.

[9] = system: tobacco calli containing HPPD SEQ ID No. 11 (Arabidopsis thaliana); assay: Rooting of calli on media with tembotrione; assay type: cell-based, Nicotiana tabacum; settings: calli containing SEQ ID No. 11; 6 to 12 weeks
Protocol: as §4, §5

[10] = SEQ ID No. 5, 5.0 × 10^−6M inhibitor
[11] = FMP29e line 121, plants with at least one T-DNA
[12] = SEQ ID No. 5, 2 mM HPP, 3 minutes incubation, >> = far higher than indicated, not calculable in tested range 2.5 × 10^−6 to 2.5 × 10^−4M

With `Cc1ccc(C(=O)COc2c(C(=O)c3ccc(Cl)c(C)c3Cl)c(C)nn2C)cc1` [Benzofenap] as the molecule, how does the IC50 ((UniProt Q6KZ98)) read?
The IC50 was 15.8 µM.

And the “percentage of inhibition compared to the activity measured in absence of the inhibitor” value (shortened to “percentage of inhibition”) [1, 10]?
Its value is 44%.

`COCCOCc1nc(C(F)(F)F)ccc1C(=O)C1=C(O)C2CCC(C2)C1=O` (centres unmarked) [Bicyclopyrone, 4-hydroxy-3-[[2-[(2-methoxyethoxy)methyl]-6-(trifluoromethyl)-3-pyridinyl]carbonyl]bicyclo[3.2.1]oct-3-en-2-one] was tested. Which “% of tolerant plant” value (Wild type tobacco plants [2]) did it give?
Its value is 0%.

And the “Class I (number of plants, injury: 0-30%)” value (Wild type tobacco plants [2])?
Its value is 0.

And the “Class II (number of plants, injury: 31-100%)” value (Wild type tobacco plants [2])?
The value was 12.

What about the “tolerance of plants containing the HPPD FMP29” value [3] of the same molecule?
Its value is “displayed tolerance”.

And the “% of tolerant plant” value ([3]; FMP29e line 121)?
The value was 2%.

What about the “Class I (number of plants, injury: 0-30%)” value [3, 11] of the same molecule?
The value was 38.

What about the “Class II (number of plants, injury: 31-100%)” value [3, 11] of the same molecule?
The value was 11.

What about the IC50 ((UniProt Q6KZ98)) of the same molecule?
The IC50 was 398 µM.

And the “percentage of inhibition” value [1, 10]?
The value was 24%.

Which results are given for `CS(=O)(=O)c1cc(C(F)(F)F)ccc1C(=O)C(C#N)C(=O)C1CC1` (centres unmarked) [Diketonitrile, 2-cyano-3-cyclopropyl-1-(2-methylsulphonyl-4-trifluoromethylphenyl)-propane-1,3-dione]?
IC50 ((UniProt Q6KZ98)): 12.6 µM; percentage of inhibition compared to the activity measured in absence of the inhibitor [1, 10]: 26%

With `CS(=O)(=O)c1cc(C(F)(F)F)ccc1C(=O)c1cnoc1C1CC1` [Isoxaflutole, (5-cyclopropyl-4-isoxazolyl)[2-(methylsulfonyl)-4-(trifluoromethyl)phenyl]methanone] as the molecule, how does the “% injury, 7DAT, 100 g Al/ha” value (Wild type tobacco plants [4]) read?
The value was 98% and 99% (2×) and 100% (4×).

What about the “% injury, 7DAT, 100 g Al/ha” value ([5]; line 252, individual T1 plants) of the same molecule?
The value was 30% and 70% and 95% and 98% (2×) and 99% (4×) and 100% (4×).

And the “% injury, 7DAT, 100 g Al/ha” value ([5]; line 258, individual T1 plants)?
The value was 100%.

And the “% injury, 7DAT, 100 g Al/ha” value ([5]; line 327, individual T1 plants)?
The value was 10% and 20% and 60% (2×) and 70% and 80% and 95% and 98% and 99% and 100% (6×).

What about the “tolerance of plants containing FMP29e gene” value [6] of the same molecule?
The value was “far more tolerant”.

What about the “% injury, 7DAT, 100 g Al/ha” value ([6]; line 115, individual T1 plants) of the same molecule?
Its value is 0% and 2% and 5% and 10% and 15% and 30% (2×) and 40%.

And the “% injury, 7DAT, 100 g Al/ha” value ([6]; line 292, individual T1 plants)?
Its value is 20% and 30% and 40%.

With `CS(=O)(=O)c1ccc(C(=O)C2C(=O)CCCC2=O)c([N+](=O)[O-])c1` [Mesotrione, 2-[4-(methylsulfonyl)-2-nitrobenzoyl]-1,3-cyclohexanedione] as the molecule, how does the “percentage of inhibition” value [1] read?
Its value is 84%.

How did the pI50 ([7]; 2 mM HPP, 3 minutes incubation, >> = far higher than indicated, not calculable in tested range 2.5 × 10^−6 to 2.5 × 10^−4M) turn out when `Cc1nn(C)c(O)c1C(=O)c1ccc(C(F)(F)F)cc1S(C)(=O)=O` [Pyrasulfotole] was run?
Its pI50 is 5.4.

What about the “percentage of inhibition” value ([7]; 5.0 × 10^−6M inhibitor) of the same molecule?
The value was 69%.

And the pI50 [1, 12]?
The pI50 was 4.0.

And the “percentage of inhibition” value [1, 10]?
The value was 7%.

How did the pI50 [1] turn out when `CS(=O)(=O)c1ccc(C(=O)C2C(=O)CCCC2=O)c(Cl)c1` [Sulcotrione, 2-[2-chloro-4-(methylsulfonyl)benzoyl]-1,3-cyclohexanedione] was run?
Its pI50 is over 5.6.

What about the “percentage of inhibition” value [1] of the same molecule?
The value was 92%.

What does the source list for `CS(=O)(=O)c1ccc(C(=O)C2C(=O)CCCC2=O)c(Cl)c1COCC1CCCO1` (centres unmarked) [Tefuryltrione, 2-[2-chloro-4-(methylsulfonyl)-3-[[(tetrahydro-2-furanyl)methoxy]methyl]benzoyl]-1,3-cyclohexanedione]?
IC50 ((UniProt Q6KZ98)): 3.16 µM; percentage of inhibition compared to the activity measured in absence of the inhibitor [1, 10]: 87. %

How did the “root growth on media supplemented with tembotrione” value [8] turn out when `CS(=O)(=O)c1ccc(C(=O)C2C(=O)CCCC2=O)c(Cl)c1COCC(F)(F)F` [Tembotrione, 2-[2-chloro-4-(methylsulfonyl)-3-[(2,2,2,-tri-fluoroethoxy)methyl]benzoyl]-1,3-cyclo-hexanedione] was run?
Its value is “developed numerous and healthy roots”.

What about the “% Elongation & rooting on 10^−6M tembotrione” value ([8]; 10^−6M) of the same molecule?
The value was 65%.

And the “root growth on media supplemented with tembotrione” value [9]?
The value was “On none of the events”.

And the “% injury, 7DAT, 100 g Al/ha” value (Wild type tobacco plants [4])?
Its value is 100%.

And the “% injury, 7DAT, 100 g Al/ha” value ([5]; line 252, individual T1 plants)?
Its value is 30% and 40% (3×) and 50% and 60% (2×) and 70% (2×) and 75% (3×) and 80%.

What about the “% injury, 7DAT, 100 g Al/ha” value ([5]; line 258, individual T1 plants) of the same molecule?
Its value is 100% (5×) and 30%.

And the “% injury, 7DAT, 100 g Al/ha” value ([5]; line 327, individual T1 plants)?
Its value is 10% and 20% (2×) and 40% and 50% and 0% and 70% (5×) and 80% (4×).

And the “tolerance of plants containing FMP29e gene” value [6]?
Its value is “far more tolerant”.

What about the “% injury, 7DAT, 100 g Al/ha” value ([6]; line 115, individual T1 plants) of the same molecule?
The value was 30% and 40% and 50% (3×).

What about the “% injury, 7DAT, 100 g Al/ha” value ([6]; line 292, individual T1 plants) of the same molecule?
Its value is 20% (2×) and 30% and 40% (2×).

What about the pI50 [1, 12] of the same molecule?
Its pI50 is 5.5.

And the “percentage of inhibition” value [1, 10]?
The value was 58%.
